What all share (type): in vivo, mouse
In test [1] the test system is 15-PGDH overexpressing young muscles.
Description: Middle aged (18-20 mo.) and aged (>24 mo.) mice C57BL/6 were obtained the US National Institute on Aging (NIA) for aged muscle studies, and young (2-4 mo.) wild-type C57BL/6 mice from Jackson Laboratory. […] Time and distance to exhaustion was performed as previously described (4) for SW-treated mice and their controls.
Overexpression of Hpgd (15-PGDH) was achieved by integrating AAV9 under CMV promoter and with eGFP under IRES (AA9-CMV-m-HPGD-IRES-eGFP) (Vector Biolabs). The control virus was AAV9-tMCK-eGFP-WPRE.
The peak isometric torque (N·mm) of the ankle plantarflexors was assessed as previously described (21, 22). Briefly, the foot of anesthetized mice was placed on a footplate attached to a servomotor (model 300C-LR; Aurora Scientific). Two Pt-Ir electrode needles (Aurora Scientific) were inserted percutaneously and subcutaneously over the tibial nerve, just posterior/posterior-medial to the knee. The ankle joint was secured at a 90° angle. The peak isometric torque was achieved by varying the current delivered to the tibial nerve at a frequency of 200 Hz and a 0.1—ms square wave pulse. We performed three tetanic measurements on each muscle, with 1 min recovery between each measurement. Data were collected with the Aurora Scientific Dynamic Muscle Data Acquisition and Analysis Software.
Test [2] can be described thus: Muscle mass, plantar flexion tetanic force and treadmill endurance in aged and young C57BL/6 mice. Particulars: young mice, daily i.p., 1 month.
Excerpt: We performed all experiments and protocols in compliance with the institutional guidelines of Stanford University and Administrative Panel on Laboratory Animal Care (APLAC). Mid (18 mo.) and aged (>24 mo.) mice C57BL/6 were obtained the US National Institute on Aging (NIA) for aged muscle studies, and young (2-4 mo.) wild-type C57BL/6 mice from Jackson Laboratory. Mice were maintained in specific-pathogen free housing on a 12-hour dark/light cycle for study duration.
Time and distance to exhaustion was performed as previously described (4) for SW-treated mice and their controls (FIG. 3A).
(§1) The peak isometric torque (N·mm) of the ankle plantarflexors was assessed as previously described (8,9). Briefly, the foot of anesthetized mice was placed on a footplate attached to a servomotor (model 300C-LR; Aurora Scientific). Two Pt-Ir electrode needles (Aurora Scientific) were inserted percutaneously were inserted subcutaneously over the tibial nerve, just posterior/posterior-medial to the knee. The ankle joint was secured at a 90° angle. The peak isometric torque was achieved by varying the current delivered to the tibial nerve at a frequency of 200 Hz and a 0.1-ms square wave pulse. We performed three tetanic measurements on each muscle, with 1 min recovery between each measurement. Data were collected with the Aurora Scientific Dynamic Muscle Data Acquisition and Analysis Software.
We performed all experiments and protocols in compliance with the institutional guidelines of Stanford University and Administrative Panel on Laboratory Animal Care (APLAC). Middle aged (18-20 mo.) and aged (>24 mo.) mice C57BL/6 were obtained the US National Institute on Aging (NIA) for aged muscle studies, and young (2-4 mo.) wild-type C57BL/6 mice from Jackson Laboratory. INK-ATTAC mice were generated as previously described (1). INK-ATTAC healthspan assessments. INK-ATTAC mice were crossed onto the C57BL6/J genetic background and maintained in specific-pathogen free housing on a 12-hour dark/light cycle for study duration. At 12 months of age, male mice were either utilized for baseline healthspan assessments and terminal muscle harvest or randomized to receive twice-weekly vehicle or AP20187 (2 mg/kg intraperitoneal injection; B/B homodimerizer, Clontech) until assessment and sacrifice at 28 months of age (2). […] Time and distance to exhaustion was performed as previously described (4) for SW-treated mice and their controls. […]
as §1, with “described (21, 22).” for “described (8,9).”, “percutaneously and” for “percutaneously were inserted”, “a 0.1—ms” for “a 0.1-ms”

In test [3] the test system is PGE2 and PGD2 levels in muscle tissue. The test can be described thus: LC-MS/MS of prostaglandins in muscle tissue lysates. Particulars: aged mice, daily i.p., 1 month. On the procedure: All prostaglandin standards-PGF2a; PGE2; PGD2; 15-keto PGE2; 13,14-dihydro 15-keto PGE2; PGE2-D4; and PGF2α-D9—were purchased from Cayman Chemical. For the PGE2-D4 internal standard, positions 3 and 4 were labeled with a total of four deuterium atoms. For PGF2α-D9, positions 17, 18, 19 and 20 were labeled with a total of nine deuterium atoms.
Analyte stock solutions (5 mg/mL) were prepared in DMSO. These stock solutions were serially diluted with acetonitrile/water (1:1 v/v) to obtain a series of standard working solutions, which were used to generate the calibration curve. […]
Solid tissues were harvested, weighed, and snap-frozen with liquid nitrogen. […] The dry residue was reconstituted in 100 μL acetonitrile/10 mM ammonium acetate (2:8 v/v) and analyzed by LC-MS/MS.
Since many prostaglandins are positional isomers with identical masses and have similar fragmentation patterns, chromatographic separation is critical. Two SRM transitions-one quantifier and one qualifier-were carefully selected for each analyte. […]
Quantitative analysis was done using LabSolutions LCMS (Shimadzu). An internal standard method was used for quantification: PGE2-D4 was used as an internal standard for quantification of PGE2, 15-keto PGE2, and 13, 14-dihydro 15-keto PGE2. […]

Setting [4] is: 15-PGDH overexpressing young muscles, daily i.p.

“Also recorded” adds a separate entry of the source.

Take `CCCC[S+]([O-])c1sc2nc(-c3cccs3)cc(-c3ccccc3)c2c1N` (stereo not shown) [SW033291, 2-(butylsulfinyl)-4-phenyl-6-(thiophen-2-yl)thieno[2,3-b]pyridin-3-amine]: in test [1] (setting [4]), the “mass of TA muscle” value is reported as “increased” and the “strength (plantar flexion tetanic force)” value is “increased”. The “muscle atrophy induced by overexpression of 15-PGDH” value in test [1] (young mice) is “rescued”. In addition, in test [2], the absolute strength result is recorded as “not statistically significant” and the muscle mass result is recorded as “not statistically significant”. For the same compound, the “PGD2 levels in muscle” value in test [3] is reported as “increase”. In addition, the “PGE2 levels in muscle” value in test [3] (listed as SW) is “elevated; also recorded: increase”.

The record behind these values is US20220304992A1, “METHODS OF REJUVENATING AGED TISSUE BY INHIBITING 15-HYDROXYPROSTAGLANDIN DEHYDROGENASE (15-PGDH)” (The Board of Trustees of the Leland Stanford Junior …, priority 2019, published 2022).
